Laboratory results as given in patent US9388148B2, “Acylaminocycloalkyl compounds suitable for treating disorders that respond to modulation of dopamine D3 receptor” (AbbVie Deutschland GmbH & Co. KG, priority 2013, dated 2016).

Assays:
[1] = Determination of the microsomal half-life / microsomal clearance; format: in vitro ADME; conditions: pH 7.4; human liver microsomes, 0.5 μM test substance, 0.25 mg protein/ml, NADPH, 37° C.; read-out: Human mCl (mikrosomal clearance)
Method: The metabolic stability of the compounds of the invention was determined in the following assay.
The test substances were incubated in a concentration of 0.5 μM as follows:
0.5 μM test substance are preincubated together with liver microsomes from different species (from rat, human or other species) (0.25 mg of microsomal protein/ml) in 0.05 M potassium phosphate buffer of pH 7.4 in microtiter plates at 37° C. for 5 min. The reaction is started by adding NADPH (1 mg/mL). After 0, 5, 10, 15, 20 and 30 min, 50 μl aliquots are removed, and the reaction is immediately stopped and cooled with the same volume of acetonitrile. The samples are frozen until analyzed. The remaining concentration of undegraded test substance is determined by MSMS. The half-life (T1/2) is determined from the gradient of the signal of test substance/unit time plot, it being possible to calculate the half-life of the test substance, assuming first order kinetics, from the decrease in the concentration of the compound with time. The microsomal clearance (mC1) is calculated from mC1=1n2/T1/2/(content of microsomal protein in mg/ml)×1000 [ml/min/mg] (modified from references: Di, The Society for Biomoleculur Screening, 2003, 453-462; Obach, DMD, 1999 vol 27. N 11, 1350-1359).

[2] = target: T1, human dopamine D2L receptors (long isoform) (Homo sapiens, UniProt P14416); assay: Dopamine D2L receptor binding ([125I]iodospiperone displacement); conditions: selectivity ratio, human D2L vs human D3 binding
T1 construct: expressed in transfected cells; host or cells: HEK-293
T1 sequence (P14416 whole entry, canonical isoform): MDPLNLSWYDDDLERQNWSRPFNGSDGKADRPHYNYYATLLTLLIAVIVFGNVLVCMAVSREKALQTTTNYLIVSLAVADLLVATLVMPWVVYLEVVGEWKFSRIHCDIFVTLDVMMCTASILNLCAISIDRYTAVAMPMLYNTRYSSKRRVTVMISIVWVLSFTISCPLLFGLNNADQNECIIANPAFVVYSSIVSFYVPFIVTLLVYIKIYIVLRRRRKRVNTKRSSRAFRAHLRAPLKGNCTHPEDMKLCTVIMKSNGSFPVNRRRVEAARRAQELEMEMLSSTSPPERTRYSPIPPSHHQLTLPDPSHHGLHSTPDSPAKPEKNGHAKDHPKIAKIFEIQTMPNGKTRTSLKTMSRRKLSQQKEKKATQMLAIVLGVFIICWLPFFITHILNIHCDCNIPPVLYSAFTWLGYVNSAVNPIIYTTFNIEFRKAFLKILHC
Method: The substance to be tested was either dissolved in methanol/Chremophor® (BASF SE) or in dimethyl sulfoxide and then diluted with water to the desired concentration.
Each assay mixture was run in triplicate. • The incubation buffer contained 50 mM tris, 120 mM NaCl, 5 mM KCl, 2 mM CaCl2, 2 mM MgCl2 and 0.1% bovine serum albumin, 10 μM quinolone and 0.1% ascorbic acid (prepared fresh daily). […] Each assay mixture was run in triplicate. • The incubation buffer contained 50 mM tris, 120 mM NaCl, 5 mM KCl, 2 mM CaCl2, 2 mM MgCl2 and 0.1% bovine serum albumin. The buffer was adjusted to pH 7.4 with HCl. c) Measurement and analysis: • After having been incubated at 25° C. for 60 minutes, the assay mixtures were filtered through a Whatman GF/B glass fiber filter under vacuum using a cell col-lecting device. The filters were transferred to scintillation viols using a filter transfer system. After 4 ml of Ultima Gold® (Packard) have been added, the samples were shaken for one hour and the radioactivity was then counted in a Beta-Counter (Packard, Tricarb 2000 or 2200CA).

| SMILES | microsomal CLint at 0.5 μM [1] | D2/D3, Ki (D2L)/Ki (D3) [2] |
| --- | --- | --- |
| COCCc1cc(N2CCN(CC[C@H]3C[C@H](NC(=O)C4CCC(O)CC4)C3)CC2)nc(C(C)(C)C)n1 (relative stereo) [Compound 11, N-[trans-3-[2-[4-[2-tert-butyl-6-(2-methoxyethyl)pyrimidin-4-yl]piperazin-1-yl]ethyl]cyclobutyl]-4-hydroxy-cyclohexanecarboxamide] | 20 to 120 µL/min/mg | ++ (++ >20) |
| CC(C)(C)c1nc(C2CCC2)cc(N2CCN(CC[C@H]3CC[C@H](NC(=O)C4CC(O)(C(F)(F)F)C4)CC3)CC2)n1 (relative stereo) [Compound 19, N-[trans-4-[2-[4-(2-tert-butyl-6-cyclobutyl-pyrimidin-4-yl)piperazin-1-yl]ethyl]cyclohexyl]-3-hydroxy-3-(trifluoromethyl)cyclobutanecarboxamide] | 20 to 120 µL/min/mg | + (+ >10) |
| COCCc1cc(N2CCN(CC[C@H]3CC[C@H](NC(=O)C4CC(O)(C(F)(F)F)C4)CC3)CC2)nc(C(C)(C)C)n1 (relative stereo) [Compound 25, N-[trans-4-[2-[4-[2-tert-butyl-6-(2-methoxyethyl)pyrimidin-4-yl]piperazin-1-yl]ethyl]cyclohexyl]-3-hydroxy-3-(trifluoromethyl)cyclobutanecarboxamide] | > 120 µL/min/mg | ++ (++ >20) |
| COCCc1cc(N2CCN(CC[C@H]3CC[C@@H](NC(=O)C4CC(O)(C(F)(F)F)C4)CC3)CC2)nc(C(C)(C)C)n1 (relative stereo) [Compound 26, N-[cis-4-[2-[4-[2-tert-butyl-6-(2-methoxyethyl)pyrimidin-4-yl]piperazin-1-yl]ethyl]cyclohexyl]-3-hydroxy-3-(trifluoromethyl)cyclobutanecarboxamide] | < 20 µL/min/mg | +++ (+++ >50) |
| CC(C)(C)c1nc(C2CCC2)cc(N2CCN(CC[C@H]3CC[C@H](NC(=O)[C@H]4CC[C@H](O)CC4)CC3)CC2)n1 [Compound 1, trans-N-[trans-4-[2-[4-(2-tert-butyl-6-cyclobutyl-pyrimidin-4-yl)piperazin-1-yl]ethyl]cyclohexyl]-4-hydroxy-cyclohexanecarboxamide] | 20 to 120 µL/min/mg | +++ (+++ >50) |
| COCCc1cc(N2CCN(CC[C@H]3CC[C@H](NC(=O)[C@H]4CC[C@H](O)CC4)CC3)CC2)nc(C(C)(C)C)n1 [Compound 2, trans-N-[trans-4-[2-[4-[2-tert-butyl-6-(2-methoxyethyl)pyrimidin-4-yl]piperazin-1-yl]ethyl]cyclohexyl]-4-hydroxy-cyclohexanecarboxamide] | 20 to 120 µL/min/mg | ++ (++ >20) |
| COCCc1cc(N2CCN(CC[C@H]3CC[C@@H](NC(=O)[C@H]4CC[C@H](O)CC4)CC3)CC2)nc(C(C)(C)C)n1 [Compound 3, trans-N-[cis-4-[2-[4-[2-tert-butyl-6-(2-methoxyethyl)pyrimidin-4-yl]piperazin-1-yl]ethyl]cyclohexyl]-4-hydroxy-cyclohexanecarboxamide] | 20 to 120 µL/min/mg | ++ (++ >20) |
| COCCc1cc(N2CCN(CC[C@H]3CC[C@H](NC(=O)[C@H]4CC[C@@H](O)CC4)CC3)CC2)nc(C(C)(C)C)n1 [Compound 4, cis-N-[trans-4-[2-[4-[2-tert-butyl-6-(2-methoxyethyl)pyrimidin-4-yl]piperazin-1-yl]ethyl]cyclohexyl]-4-hydroxy-cyclohexanecarboxamide] | > 120 µL/min/mg | ++ (++ >20) |
| COCCc1cc(N2CCN(CC[C@H]3CC[C@@H](NC(=O)[C@H]4CC[C@@H](O)CC4)CC3)CC2)nc(C(C)(C)C)n1 [Compound 5, Cis-N-[cis-4-[2-[4-[2-tert-butyl-6-(2-methoxyethyl)pyrimidin-4-yl]piperazin-1-yl]ethyl]cyclohexyl]-4-hydroxy-cyclohexanecarboxamide] | > 120 µL/min/mg | ++ (++ >20) |
| CC(C)(C)c1nc(C2CCC2)cc(N2CCN(CC[C@H]3CC[C@@H](NC(=O)[C@H]4CC[C@H](O)CC4)CC3)CC2)n1 [Compound 6, trans-N-[cis-4-[2-[4-(2-tert-butyl-6-cyclobutyl-pyrimidin-4-yl)piperazin-1-yl]ethyl]cyclohexyl]-4-hydroxy-cyclohexanecarboxamide] | 20 to 120 µL/min/mg | +++ (+++ >50) |
| COCCc1cc(N2CCN(CC[C@H]3C[C@H](NC(=O)[C@H]4CC[C@H](O)CC4)C3)CC2)nc(C(C)(C)C)n1.O=C(O)C(F)(F)F [Compound 7, Trans-N-[trans-3-[2-[4-[2-tert-butyl-6-(2-methoxyethyl)pyrimidin-4-yl]piperazin-1-yl]ethyl]cyclobutyl]-4-hydroxy-cyclohexanecarboxamide; 2,2,2-trifluoroacetic acid] | 20 to 120 µL/min/mg | +++ (+++ >50) |
| COCCc1cc(N2CCN(CC[C@H]3C[C@@H](NC(=O)[C@H]4CC[C@H](O)CC4)C3)CC2)nc(C(C)(C)C)n1.O=C(O)C(F)(F)F [Compound 8, trans-N-[cis-3-[2-[4-[2-tert-butyl-6-(2-methoxyethyl)pyrimidin-4-yl]piperazin-1-yl]ethyl]cyclobutyl]-4-hydroxy-cyclohexanecarboxamide; 2,2,2-trifluoroacetic acid] | 20 to 120 µL/min/mg | +++ (+++ >50) |
| CC(C)(C)c1nc(C2CCC2)cc(N2CCN(CC[C@H]3C[C@H](NC(=O)[C@H]4CC[C@H](O)CC4)C3)CC2)n1 [Compound 9, Trans-N-[trans-3-[2-[4-(2-tert-butyl-6-cyclobutyl-pyrimidin-4-yl)piperazin-1-yl]ethyl]cyclobutyl]-4-hydroxy-cyclohexanecarboxamide] | 20 to 120 µL/min/mg | +++ (+++ >50) |
| CC(C)(C)c1nc(C2CCC2)cc(N2CCN(CC[C@H]3C[C@@H](NC(=O)[C@H]4CC[C@H](O)CC4)C3)CC2)n1 [Compound 10, Trans-N-[cis-3-[2-[4-(2-tert-butyl-6-cyclobutyl-pyrimidin-4-yl)piperazin-1-yl]ethyl]cyclobutyl]-4-hydroxy-cyclohexanecarboxamide] | 20 to 120 µL/min/mg | +++ (+++ >50) |
| COCCc1cc(N2CCN(CC[C@H]3C[C@@H](NC(=O)[C@H]4CC[C@@H](O)CC4)C3)CC2)nc(C(C)(C)C)n1 [Compound 12, Cis-N-[cis-3-[2-[4-[2-tert-butyl-6-(2-methoxyethyl)pyrimidin-4-yl]piperazin-1-yl]ethyl]cyclobutyl]-4-hydroxy-cyclohexanecarboxamide] | 20 to 120 µL/min/mg | +++ (+++ >50) |
| CC(C)(C)c1nc(C2CCC2)cc(N2CCN(CC[C@H]3CC[C@H](NC(=O)[C@H]4C[C@@H](O)C4)CC3)CC2)n1 [Compound 13, Cis-N-[trans-4-[2-[4-(2-tert-butyl-6-cyclobutyl-pyrimidin-4-yl)piperazin-1-yl]ethyl]cyclohexyl]-3-hydroxy-cyclobutanecarboxamide] | > 120 µL/min/mg | ++ (++ >20) |
| CC(C)(C)c1nc(C2CCC2)cc(N2CCN(CC[C@H]3CC[C@H](NC(=O)[C@H]4CC[C@@H](O)CC4)CC3)CC2)n1.O=C(O)C(F)(F)F [Compound 14, Cis-N-[trans-4-[2-[4-(2-tert-butyl-6-cyclobutyl-pyrimidin-4-yl)piperazin-1-yl]ethyl]cyclohexyl]-4-hydroxy-cyclohexanecarboxamide; 2,2,2-trifluoroacetic acid] | > 120 µL/min/mg | ++ (++ >20) |
| CC(C)(C)c1nc(C2CCC2)cc(N2CCN(CC[C@H]3CC[C@@H](NC(=O)[C@H]4CC[C@@H](O)CC4)CC3)CC2)n1.O=C(O)C(F)(F)F [Compound 15, Cis-N-[cis-4-[2-[4-(2-tert-butyl-6-cyclobutyl-pyrimidin-4-yl)piperazin-1-yl]ethyl]cyclohexyl]-4-hydroxy-cyclohexanecarboxamide; 2,2,2-trifluoroacetic acid] | > 120 µL/min/mg | +++ (+++ >50) |
| COCc1cc(N2CCN(CC[C@H]3CC[C@H](NC(=O)[C@H]4C[C@@H](O)C4)CC3)CC2)nc(C(C)(C)C)n1 [Compound 40, cis-N-[trans-4-[2-[4-[2-tert-butyl-6-(methoxymethyl)pyrimidin-4-yl]piperazin-1-yl]ethyl]cyclohexyl]-3-hydroxy-cyclobutanecarboxamide] | 20 to 120 µL/min/mg |  |
